According to patent US12435044B2, “Pyridazinone herbicides and pyridazinone intermediates used to prepare a herbicide” (FMC Corporation, priority 2018, dated 2025):

Key:
Type in all cases: in vivo
Conditions in all cases: scale 0 to 100
[1] = tested on: field poppy (Papaver rhoeas); test: Test C postemergence greenhouse test
Text: (§1) Seeds of plant species selected from blackgrass (Alopecurus myosuroides), ryegrass, Italian (Lolium multiflorum), wheat, winter (winter wheat, Triticum aestivum), galium (catchweed bedstraw, Galium aparine), corn (Zea mays), crabgrass, large (Digitaria sanguinalis), foxtail, giant (Setaria faberii), johnsongrass (Sorghum halepense), lambsquarters (Chenopodium album), morningglory (Ipomoea coccinea), nutsedge, yellow (Cyperus esculentus), pigweed (Amaranthus retroflexus), ragweed (common ragweed, Ambrosia elatior), soybean (Glycine max), barnyardgrass (Echinochloa crus-galli), oilseed rape (Brassica napus), waterhemp (common waterhemp, Amaranthus rudis), pigweed, palmer (Amaranthus palmeri), kochia (Kochia scoparia), oat, wild (Avena fatua), surinam grass (Brachiaria decumbens), windgrass (Apera spica-venti), poinsettia, wild (Euphorbia heterophylla) and velvetleaf (Abutilon theophrasti) were planted into a silt loam soil and treated preemergence with test chemicals formulated in a non-phytotoxic solvent mixture which included a surfactant.
(§2) At the same time, plants selected from these crop and weed species and also chickweed (common chickweed, Stellaria media), buckwheat, wild (Polygonum convolvulus), mustard, wild (Sinapis arvensis), field poppy (Papaver rhoeas), field violet (Viola arvensis), nightshade (eastern black nightshade, Solanum ptycanthum), speedwell (bird's-eye speedwell, Veronica persica), horseweed (Conyza canadensis), cutleaf geranium (Geranium dissectum), and Canada thistle (Cirsium arvense) were planted in pots containing Redi-Earth® planting medium (Scotts Company, 14111 Scottslawn Road, Marysville, Ohio 43041) comprising spaghnum peat moss, vermiculite, wetting agent and starter nutrients and treated with postemergence applications of test chemicals formulated in the same manner. Plants ranged in height from 2 to 18 cm (1- to 4-leaf stage) for postemergence treatments. Treated plants and controls were maintained in a greenhouse for 13 to 21 d, after which time all species were compared to controls and visually evaluated. Plant response ratings, summarized in Table C-1 (postemergence) and C-2 (preemergence), are based on a scale of 0 to 100 where 0 is no effect and 100 is complete control. A dash (-) response means no test result.

[2] = tested on: chickweed (common chickweed, Stellaria media); test: Test C postemergence greenhouse test
Text: as §1, §2

[3] = tested on: wheat, winter (winter wheat, Triticum aestivum); test: Test C pre-/postemergence greenhouse test
Procedure, shortened: (§3)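 Seeds sown in silt loam soil and sprayed preemergence with test chemicals in a non-phytotoxic solvent mixture containing surfactant. Postemergence plants, 2 to 18 cm (1- to 4-leaf stage), grown in peat/vermiculite planting medium and treated with the same formulation. Visual injury rated 0–100 versus untreated controls after 13 to 21 d in the greenhouse.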

[4] = tested on: waterhemp (common waterhemp, Amaranthus rudis); test: Test C pre-/postemergence greenhouse test
Procedure, shortened: as §3

kochia (Kochia scoparia) = test: Test C pre-/postemergence greenhouse test
Procedure, shortened: as §3

[5] = tested on: foxtail, giant (Setaria faberii); test: Test C pre-/postemergence greenhouse test
Procedure, shortened: as §3

[6] = tested on: velvetleaf (Abutilon theophrasti); test: Test C pre-/postemergence greenhouse test
Procedure, shortened: as §3

[7] = tested on: ryegrass, Italian (Lolium multiflorum); test: Test C pre-/postemergence greenhouse test
Procedure, shortened: as §3

[8] = tested on: pigweed, palmer (Amaranthus palmeri); test: Test C pre-/postemergence greenhouse test
Procedure, shortened: as §3

oat, wild (Avena fatua) = test: Test C pre-/postemergence greenhouse test
Procedure, shortened: as §3

[9] = tested on: nutsedge, yellow (Cyperus esculentus); test: Test C pre-/postemergence greenhouse test
Procedure, shortened: as §3

[10] = tested on: surinam grass (Brachiaria decumbens); test: Test C pre-/postemergence greenhouse test
Procedure, shortened: as §3

SMILES: Cc1ccc2ccc(Cl)cc2c1-c1c(O)c(Cl)nn(C)c1=O [Cpd. No. 22]
- Plant response rating, Field Poppy ([1]; 16 g ai/ha): 75
- Plant response rating, Field Poppy ([1]; 31 g ai/ha): 75
- Plant response rating, Field Poppy ([1]; 62 g ai/ha): 75
- Plant response rating, Field Poppy ([1]; 125 g ai/ha): 100
- Plant response rating, Chickweed ([2]; 16 g ai/ha): 100
- Plant response rating, Chickweed ([2]; 31 g ai/ha): 98
- Plant response rating, Chickweed ([2]; 62 g ai/ha): 100
- Plant response rating, Chickweed ([2]; 125 g ai/ha): 100
- Plant response rating, Wheat ([3]; Postemergence, 16 g ai/ha): 85
- Plant response rating, Wheat ([3]; Postemergence, 31 g ai/ha): 90
- Plant response rating, Wheat ([3]; Postemergence, 62 g ai/ha): 90
- Plant response rating, Wheat ([3]; Postemergence, 125 g ai/ha): 95
- Plant response rating, Wheat ([3]; Preemergence, 31 g ai/ha): 85
- Plant response rating, Wheat ([3]; Preemergence, 61 g ai/ha): 60
- Plant response rating, Wheat ([3]; Preemergence, 62 g ai/ha): 95
- Plant response rating, Wheat ([3]; Preemergence, 125 g ai/ha): 100
- Plant response rating, Waterhemp ([4]; Postemergence, 16 g ai/ha): 75
- Plant response rating, Waterhemp ([4]; Postemergence, 31 g ai/ha): 85
- Plant response rating, Waterhemp ([4]; Postemergence, 62 g ai/ha): 85
- Plant response rating, Waterhemp ([4]; Postemergence, 125 g ai/ha): 90
- Plant response rating, Waterhemp ([4]; Preemergence, 31 g ai/ha): 85
- Plant response rating, Waterhemp ([4]; Preemergence, 61 g ai/ha): 70
- Plant response rating, Waterhemp ([4]; Preemergence, 62 g ai/ha): 95
- Plant response rating, Waterhemp ([4]; Preemergence, 125 g ai/ha): 95
- Plant response rating, Kochia (kochia (Kochia scoparia); Postemergence, 16 g ai/ha): 25
- Plant response rating, Kochia (kochia (Kochia scoparia); Postemergence, 31 g ai/ha): 35
- Plant response rating, Kochia (kochia (Kochia scoparia); Postemergence, 62 g ai/ha): 65
- Plant response rating, Kochia (kochia (Kochia scoparia); Postemergence, 125 g ai/ha): 70
- Plant response rating, Kochia (kochia (Kochia scoparia); Preemergence, 31 g ai/ha): 5
- Plant response rating, Kochia (kochia (Kochia scoparia); Preemergence, 61 g ai/ha): 0
- Plant response rating, Kochia (kochia (Kochia scoparia); Preemergence, 62 g ai/ha): 80
- Plant response rating, Kochia (kochia (Kochia scoparia); Preemergence, 125 g ai/ha): 95
- Plant response rating, Foxtail, Giant ([5]; Postemergence, 16 g ai/ha): 85
- Plant response rating, Foxtail, Giant ([5]; Postemergence, 31 g ai/ha): 90
- Plant response rating, Foxtail, Giant ([5]; Postemergence, 62 g ai/ha): 95
- Plant response rating, Foxtail, Giant ([5]; Postemergence, 125 g ai/ha): 98
- Plant response rating, Foxtail, Giant ([5]; Preemergence, 31 g ai/ha): 80
- Plant response rating, Foxtail, Giant ([5]; Preemergence, 61 g ai/ha): 0
- Plant response rating, Foxtail, Giant ([5]; Preemergence, 62 g ai/ha): 100
- Plant response rating, Foxtail, Giant ([5]; Preemergence, 125 g ai/ha): 100
- Plant response rating, Velvetleaf ([6]; Postemergence, 16 g ai/ha): 55
- Plant response rating, Velvetleaf ([6]; Postemergence, 31 g ai/ha): 60
- Plant response rating, Velvetleaf ([6]; Postemergence, 62 g ai/ha): 80
- Plant response rating, Velvetleaf ([6]; Postemergence, 125 g ai/ha): 85
- Plant response rating, Velvetleaf ([6]; Preemergence, 31 g ai/ha): 60
- Plant response rating, Velvetleaf ([6]; Preemergence, 61 g ai/ha): 10
- Plant response rating, Velvetleaf ([6]; Preemergence, 62 g ai/ha): 90
- Plant response rating, Velvetleaf ([6]; Preemergence, 125 g ai/ha): 80
- Plant response rating, Ryegrass, Italian ([7]; Postemergence, 16 g ai/ha): 70
- Plant response rating, Ryegrass, Italian ([7]; Postemergence, 31 g ai/ha): 85
- Plant response rating, Ryegrass, Italian ([7]; Postemergence, 62 g ai/ha): 95
- Plant response rating, Ryegrass, Italian ([7]; Postemergence, 125 g ai/ha): 100
- Plant response rating, Ryegrass, Italian ([7]; Preemergence, 31 g ai/ha): 25
- Plant response rating, Ryegrass, Italian ([7]; Preemergence, 61 g ai/ha): 5
- Plant response rating, Ryegrass, Italian ([7]; Preemergence, 62 g ai/ha): 98
- Plant response rating, Ryegrass, Italian ([7]; Preemergence, 125 g ai/ha): 90
- Plant response rating, Pigweed, Palmer ([8]; Postemergence, 16 g ai/ha): 50
- Plant response rating, Pigweed, Palmer ([8]; Postemergence, 31 g ai/ha): 70
- Plant response rating, Pigweed, Palmer ([8]; Postemergence, 62 g ai/ha): 70
- Plant response rating, Pigweed, Palmer ([8]; Postemergence, 125 g ai/ha): 75
- Plant response rating, Pigweed, Palmer ([8]; Preemergence, 31 g ai/ha): 65
- Plant response rating, Pigweed, Palmer ([8]; Preemergence, 61 g ai/ha): 40
- Plant response rating, Pigweed, Palmer ([8]; Preemergence, 62 g ai/ha): 75
- Plant response rating, Pigweed, Palmer ([8]; Preemergence, 125 g ai/ha): 100
- Plant response rating, Oat, Wild (oat, wild (Avena fatua); Postemergence, 16 g ai/ha): 98
- Plant response rating, Oat, Wild (oat, wild (Avena fatua); Postemergence, 31 g ai/ha): 100
- Plant response rating, Oat, Wild (oat, wild (Avena fatua); Postemergence, 62 g ai/ha): 100
- Plant response rating, Oat, Wild (oat, wild (Avena fatua); Postemergence, 125 g ai/ha): 100
- Plant response rating, Oat, Wild (oat, wild (Avena fatua); Preemergence, 31 g ai/ha): 30
- Plant response rating, Oat, Wild (oat, wild (Avena fatua); Preemergence, 61 g ai/ha): 0
- Plant response rating, Oat, Wild (oat, wild (Avena fatua); Preemergence, 62 g ai/ha): 45
- Plant response rating, Oat, Wild (oat, wild (Avena fatua); Preemergence, 125 g ai/ha): 95
- Plant response rating, Nutsedge, Yellow ([9]; Postemergence, 16 g ai/ha): 10
- Plant response rating, Nutsedge, Yellow ([9]; Postemergence, 31 g ai/ha): 35
- Plant response rating, Nutsedge, Yellow ([9]; Postemergence, 62 g ai/ha): 90
- Plant response rating, Nutsedge, Yellow ([9]; Postemergence, 125 g ai/ha): 85
- Plant response rating, Nutsedge, Yellow ([9]; Preemergence, 31 g ai/ha): 50
- Plant response rating, Nutsedge, Yellow ([9]; Preemergence, 61 g ai/ha): 25
- Plant response rating, Nutsedge, Yellow ([9]; Preemergence, 62 g ai/ha): 75
- Plant response rating, Nutsedge, Yellow ([9]; Preemergence, 125 g ai/ha): 95
- Plant response rating, Surinam Grass ([10]; Postemergence, 16 g ai/ha): 80
- Plant response rating, Surinam Grass ([10]; Postemergence, 31 g ai/ha): 85
- Plant response rating, Surinam Grass ([10]; Postemergence, 62 g ai/ha): 95
- Plant response rating, Surinam Grass ([10]; Postemergence, 125 g ai/ha): 95
- Plant response rating, Surinam Grass ([10]; Preemergence, 31 g ai/ha): 90
- Plant response rating, Surinam Grass ([10]; Preemergence, 61 g ai/ha): 75
- Plant response rating, Surinam Grass ([10]; Preemergence, 62 g ai/ha): 95
- Plant response rating, Surinam Grass ([10]; Preemergence, 125 g ai/ha): 100
